Data on one compound can be found in US20040235863A1, “Morpholine-bridged pyrazolopyridine derivatives” (priority 2001, published 2004).

The subject of the assay is rabbit aorta rings contracted with phenylephrine. Put plainly: Vasorelaxant effect in vitro. Conditions: Oryctolagus cuniculus; isolated rabbit aorta rings, phenylephrine-induced contraction, concentration reducing height of contraction by 50%. Details: species or system Rabbits. As to the method:
Vasorelaxant Effect in Vitro
Rabbits are stunned by a blow to the back of the neck and are exsanguinated. The aorta is removed, freed of adherent tissue, divided into rings 1.5 mm wide and put singly under tension in 5 ml organ baths containing carbogen-gassed Krebs-Henseleit solution at 37° C. with the following composition (mM): NaCl: 119; KCl: 4.8; CaCl2×2H2O: 1; MgSO4×7H2O: 1.4; KH2PO4: 1.2; NaHCO3: 25; glucose: 10. The force of contraction is detected with Statham UC2 cells, amplified and digitized via A/D converters (DAS-1802 HC, Keithley Instruments Munich) and recorded in parallel on chart recorders. A contraction is generated by adding phenylephrine to the bath cumulatively in increasing concentration. After several control cycles, the substance to be investigated is investigated in each further run in increasing dosage in each case, and the height of the contraction is compared with the height of the contraction reached in the last preceding run. The concentration necessary to reduce the height of the control value by 50% (IC50) is calculated from this. The standard application volume is 5 μl, and the DMSO content in the bath solution corresponds to 0.1%.

In general, IC50 refers to the concentration needed to halve the response being measured. `Nc1nc(-c2nn(Cc3ccccc3F)c3ncccc23)ncc1N1C2CCCC1COC2` [Example 2, 2-[1-(2-Fluorobenzyl)-1H-pyrazolo[3,4-b]pyridin-3-yl]-5-(3-oxa-9-azabicyclo[3.3.1]non-9-yl)-4-pyrimidinylamine] displayed an IC50 of 300 nM.
